Some test systems named below: ACHN; SNB-19; MCF7; A498; SF-295; RXF 393; OVCAR-5; SK-MEL-28; HCT-116; HCC 2998; K562; NCI-H460; Hs-578T; TK-10; A549; PC-3; NCI-H522; KM12.
Common to all, as to experiment: NCI anticancer screen, dose series, 48 h

Structures are written as SMILES.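 How tested: cells in 96-well plates exposed to compound for 48 hours at five concentrations. At the GI50, growth is halved.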 The source made the active and inactive calls. Rule as the data show it: active = GI50 up to about 1.1 µM and inactive = higher. A value given as a limit tells only on which side of the number the result lay.

As to `N#CC(NCCc1ccccc1)c1ccc(C(C#N)NCCc2ccccc2)cc1` (centres undefined), the GI50 was > 100 µM (inactive) in the assay on ACHN; 61.2 µM (inactive) in the assay on SNB-19; 55.5 µM (inactive) in the assay on MCF7; > 100 µM (inactive) in the assay on A498; > 100 µM (inactive) with SF-295; > 100 µM (inactive) with RXF 393. Further, the GI50 was > 100 µM (inactive) in the assay on OVCAR-5; 48.5 µM (inactive) with SK-MEL-28; 28.8 µM (inactive) in the assay on HCT-116; 83.9 µM (inactive) in the assay with HCC 2998; 24.2 µM (inactive) with K562; > 100 µM (inactive) with NCI-H460. Moreover, the GI50 in the assay on Hs-578T is 71.8 µM (inactive); with TK-10, > 100 µM (inactive); with A549, > 100 µM (inactive); with PC-3 it was > 100 µM (inactive); in the assay on NCI-H522, > 100 µM (inactive); in the assay on KM12, > 100 µM (inactive).
Turning to `Cc1ccc(S(=O)(=O)Nc2cc(O)nc3c2CCC3)cc1`, the GI50 in the assay on ACHN, in the assay with SNB-19, in the assay on MCF7, with A498, in the assay on SF-295 and with RXF 393 was > 100 µM (inactive) each time. Moreover, the GI50 in the assay on OVCAR-5, in the assay with SK-MEL-28, in the assay with HCT-116, in the assay with HCC 2998, in the assay on K562 and in the assay with NCI-H460 was > 100 µM (inactive) throughout. Moreover, the GI50 with Hs-578T, in the assay with TK-10, in the assay with A549, in the assay on PC-3, in the assay on NCI-H522 and with KM12 was > 100 µM (inactive) each time.
`O[C@H]1[C@H]2c3cc4c(cc3CN3CCC(=C[C@@H]1O)[C@H]23)OCO4` [LYCORINE]: the GI50 in the assay on ACHN was 0.849 µM (active); with SNB-19, 2.11 µM (inactive); in the assay with MCF7, 0.201 µM (active); with A498 it was 2.96 µM (inactive); in the assay with SF-295 it was 2.69 µM (inactive); with RXF 393 it was 0.3 µM (active). Moreover, the GI50 is 2.5 µM (inactive) in the assay on OVCAR-5; 2.7 µM (inactive) in the assay on SK-MEL-28; 1.26 µM (inactive) in the assay with HCT-116; 2.33 µM (inactive) in the assay with HCC 2998; 1.2 µM (inactive) in the assay with K562; 1.26 µM (inactive) in the assay on NCI-H460. Besides, the GI50 is 2.91 µM (inactive) with Hs-578T; 2.67 µM (inactive) in the assay on TK-10; 1.39 µM (inactive) in the assay on A549; 1.45 µM (inactive) in the assay with PC-3; 1.05 µM (active) in the assay on NCI-H522; 2.7 µM (inactive) in the assay with KM12.
As for `Cc1ccc2cccc(OC(=O)c3cc4c(cc3Cl)Sc3nccn3S4(=O)=O)c2n1`, the GI50 is 10.5 µM (inactive) in the assay on ACHN; 12.9 µM (inactive) in the assay with SNB-19; 5.71 µM (inactive) in the assay on MCF7; 17.7 µM (inactive) in the assay with A498; 12.9 µM (inactive) in the assay on SF-295; 5.16 µM (inactive) in the assay on RXF 393. In addition, the GI50 with OVCAR-5 was 23.8 µM (inactive); in the assay with SK-MEL-28, 10.2 µM (inactive); in the assay on HCT-116 it was 6.53 µM (inactive); in the assay on HCC 2998 it was 5.75 µM (inactive); in the assay on K562, 4.06 µM (inactive); in the assay on NCI-H460 it was 3.13 µM (inactive). Further, the GI50 in the assay on Hs-578T was 13.4 µM (inactive); in the assay on TK-10, 11 µM (inactive); in the assay with A549 it was 11.2 µM (inactive); with PC-3, 4.39 µM (inactive); in the assay on NCI-H522 it was 9.82 µM (inactive); in the assay with KM12, 5.75 µM (inactive).
For the compound `CSC1=C(c2ccc(Cl)cc2)SC(N2CCCCC2)N1c1ccc([N+](=O)[O-])cc1` (centres undefined), the GI50 was 25.2 µM (inactive) with ACHN; 28.8 µM (inactive) with SNB-19; 35.6 µM (inactive) with MCF7; 19 µM (inactive) in the assay with A498; 24 µM (inactive) with SF-295; > 100 µM (inactive) in the assay with RXF 393. Further, the GI50 is 28 µM (inactive) in the assay on OVCAR-5; 38.8 µM (inactive) in the assay on SK-MEL-28; 23 µM (inactive) in the assay with HCT-116; 41.9 µM (inactive) in the assay with HCC 2998; 33 µM (inactive) in the assay with K562; 23.6 µM (inactive) in the assay on NCI-H460. Further, the GI50 in the assay on Hs-578T is 47.9 µM (inactive); in the assay on TK-10, 42.2 µM (inactive); with A549, 29.2 µM (inactive); with PC-3 it was 18.5 µM (inactive); in the assay on NCI-H522, 24.2 µM (inactive); with KM12, 31 µM (inactive).
As for `CSC1=C(C(=O)Nc2ccccc2)C(N)=NC1=O`, the GI50 with SNB-19 is > 100 µM (inactive); in the assay with MCF7, 89.7 µM (inactive); with A498, 56.2 µM (inactive); with RXF 393 it was 79.3 µM (inactive); in the assay with SK-MEL-28 it was > 100 µM (inactive); in the assay on HCT-116 it was > 100 µM (inactive). Also, the GI50 in the assay with HCC 2998, in the assay on K562, in the assay on NCI-H460, in the assay on Hs-578T, with TK-10 and with A549 was > 100 µM (inactive) each time. Also, the GI50 in the assay on PC-3 was > 100 µM (inactive); with NCI-H522 it was 11.3 µM (inactive); with KM12 it was > 100 µM (inactive).
With `O=C(N/N=C\c1c(O)ccc2ccccc12)c1ccncc1`, the GI50 in the assay with ACHN is 0.206 µM (active); in the assay with SNB-19 it was 1.21 µM (inactive); with MCF7 it was 3.09 µM (inactive); with A498, 2.21 µM (inactive); in the assay with SF-295, > 5.98 µM (inactive); with RXF 393, 0.383 µM (active). For the same compound, the GI50 was > 6.85 µM (inactive) in the assay on OVCAR-5; 0.649 µM (active) in the assay on SK-MEL-28; 0.191 µM (active) with HCT-116; > 11.4 µM (inactive) in the assay with HCC 2998; 0.0553 µM (active) in the assay with K562; > 15.3 µM (inactive) with Hs-578T. Moreover, the GI50 in the assay with TK-10 is > 7.23 µM (inactive); in the assay on A549, 0.789 µM (active); with PC-3, 0.752 µM (active); in the assay on NCI-H522, 0.638 µM (active); in the assay on KM12 it was 2.7 µM (inactive).
Regarding `COC(=O)/C(=N\N)C(C(=O)C(=O)Nc1cc(Cl)ccc1Cl)c1nc2ccc([N+](=O)[O-])cc2nc1O` (centres undefined), the GI50 with ACHN is 50.9 µM (inactive); with MCF7, > 100 µM (inactive); in the assay with A498, > 100 µM (inactive); in the assay with SF-295 it was > 100 µM (inactive); with RXF 393, > 100 µM (inactive); in the assay with OVCAR-5, > 100 µM (inactive). Moreover, the GI50 in the assay with SK-MEL-28 was > 100 µM (inactive); in the assay on HCT-116 it was > 100 µM (inactive); with HCC 2998, > 100 µM (inactive); with K562, > 100 µM (inactive); in the assay on NCI-H460 it was > 100 µM (inactive); in the assay on Hs-578T, 47.9 µM (inactive). In addition, the GI50 in the assay with TK-10, in the assay with A549, in the assay on PC-3, in the assay on NCI-H522 and in the assay with KM12 was > 100 µM (inactive) throughout.

(Values after ChEMBL document CHEMBL1201862, “PubChem BioAssay data set” (2004).)
